According to article PMC8893300, “A Dynamic Mass Redistribution Assay for the Human Sweet Taste Receptor Uncovers G-Protein Dependent Biased Ligands” (Frontiers in Pharmacology, 2022):
Blank lines part the entries; values can stand above or below the compound they belong to.

How the values were obtained:
[1] = test system: sucralose response (sweet taste receptor) in R2/R3 U2OS cells; experiment: Pathway blockers on sucralose-mediated DMR response in R2/R3 U2OS cells; settings: for effect on the sucralose DMR response, in words: latrunculin A 1 μM, PTx overnight, wortmannin 200 nM, U0126 2 μM
Protocol: (§1) Blocker stocks (250x) were prepared in DMSO or water and stored as aliquots at −20°C. Just before use, they were diluted to 2X their final concentration in assay buffer (D-PBS) at a final concentration of 0.4% DMSO. Concentrated stock solutions of the agonists somatostatin, carbachol, EGF, and sucralose were made in water or D-PBS while S1P was made up in 50% EtOH. Just before use, the agonists were diluted to 5X their final concentration in D-PBS at a final concentration of 0.4% DMSO. Final agonist concentrations were 10 μM somatostatin, 100 μM carbachol, 100–300 ng/ml EGF, 2 mM sucralose and 1 μM S1P. R2/R3 U2OS cells were plated as described above. The following day cells were washed on the Epic® with D-PBS/0.4% DMSO leaving a residual volume of 10 μl. 10 μl of D-PBS/0.4% DMSO was added to each well by hand followed by 20 μl of 2X pathway blocker. Cell plates were equilibrated on the Epic® for 90 min. After recording the baseline activity for 5 min, 10 μl of 5X agonist was added using the LHA and the DMR responses were monitored for an additional 40 min.
(§2) Cells were equilibrated at room temperature for 90 min in the Epic® reader with the indicated concentrations of pathway blockers or latrunculin A. In the case of PTx, cells were incubated over night at 37°C and on the day of the experiment PTx was replaced with buffer and cells were equilibrated in the Epic® reader as described above. A 5x-concentrated stock of agonist was then added onto the cells and DMR responses were recorded as described in Materials and Methods. […] Two to eight independent experiments were conducted with each blocker (number of independent experiments are indicated on the bar graph).

[2] = test system: S1P response in R2/R3 U2OS cells; experiment: Pathway blockers on S1P-mediated DMR response in R2/R3 U2OS cells; settings: for % inhibition of the S1P DMR response: PTx overnight, U0126 2 μM, GF109203x 5 μM, GW583340 10 μM, tyrphostin 1 μM, GSK269962 2 μM, mean ± sd or average of two experiments
Protocol: as §1, §2

[3] = test system: somatostatin response in R2/R3 U2OS cells; experiment: Pathway blockers on somatostatin-mediated DMR response in R2/R3 U2OS cells; settings: for effect on the somatostatin DMR response, in words: latrunculin A 1 μM, wortmannin 200 nM, U0126 2 μM, GSK269962 2 μM
Protocol: as §1, §2

[4] = test system: carbachol response in R2/R3 U2OS cells; experiment: Pathway blockers on carbachol-mediated DMR response in R2/R3 U2OS cells; settings: for effect on the carbachol DMR response, in words: latrunculin A 1 μM, wortmannin 200 nM, U0126 2 μM, GSK269962 2 μM
Protocol: as §1, §2

[5] = test system: EGF response in R2/R3 U2OS cells; experiment: Pathway blockers on EGF-mediated DMR response in R2/R3 U2OS cells; settings: for % inhibition of the EGF DMR response / effect on the EGF DMR response, in words: 100–300 ng/ml EGF; for % inhibition of the EGF DMR response: PTx overnight, wortmannin 200 nM, U0126 2 μM, GF109203x 5 μM, mean ± sd; for effect on the EGF DMR response, in words: latrunculin A 1 μM, GW583340 10 μM, tyrphostin 1 μM, GSK269962 2 μM
Protocol: as §1, §2

parental U2OS cells = experiment: DMR assay on parental U2OS cells (receptor-independent responses); type: cell-based
Protocol: The plates were incubated in the tissue culture hood for 20 min to allow cells to settle evenly at the bottom of the microplate and further cultured at 37°C in an atmosphere of 5% CO2 for 18–24 h. The next day, the cells were subjected to functional analysis using DMR. The lidded Epic® 384 microplate and polypropylene compound plate (Corning) were loaded into the carousel of the Epic® reader, the target plate was washed with DMSO matched D-PBS using the Corning Epic® Liquid Handling Accessory (LHA) and equilibrated in 25 μl of DMSO matched D-PBS for 90 min. […] When indicated, data for agonist dose-responses were normalized to data obtained with a maximum concentration of sucralose (1 mM) and then fitted and plotted using GraphPad Prism (San Diego, CA) and non-linear regression analysis.

[6] = target: T1, human sweet taste receptor (hT1R2/hT1R3) coupled to Gα15 (Homo sapiens, UniProt Q7RTX0+Q8TE23); experiment: FLIPR calcium mobilization assay, R2/R3 U2OS cells transduced with Gα15 baculovirus; type: cell-based; settings: R2/R3 U2OS cells transduced with Gα15
T1 construct: expressed in transfected cells
T1 sequence (Q8TE23 20-839): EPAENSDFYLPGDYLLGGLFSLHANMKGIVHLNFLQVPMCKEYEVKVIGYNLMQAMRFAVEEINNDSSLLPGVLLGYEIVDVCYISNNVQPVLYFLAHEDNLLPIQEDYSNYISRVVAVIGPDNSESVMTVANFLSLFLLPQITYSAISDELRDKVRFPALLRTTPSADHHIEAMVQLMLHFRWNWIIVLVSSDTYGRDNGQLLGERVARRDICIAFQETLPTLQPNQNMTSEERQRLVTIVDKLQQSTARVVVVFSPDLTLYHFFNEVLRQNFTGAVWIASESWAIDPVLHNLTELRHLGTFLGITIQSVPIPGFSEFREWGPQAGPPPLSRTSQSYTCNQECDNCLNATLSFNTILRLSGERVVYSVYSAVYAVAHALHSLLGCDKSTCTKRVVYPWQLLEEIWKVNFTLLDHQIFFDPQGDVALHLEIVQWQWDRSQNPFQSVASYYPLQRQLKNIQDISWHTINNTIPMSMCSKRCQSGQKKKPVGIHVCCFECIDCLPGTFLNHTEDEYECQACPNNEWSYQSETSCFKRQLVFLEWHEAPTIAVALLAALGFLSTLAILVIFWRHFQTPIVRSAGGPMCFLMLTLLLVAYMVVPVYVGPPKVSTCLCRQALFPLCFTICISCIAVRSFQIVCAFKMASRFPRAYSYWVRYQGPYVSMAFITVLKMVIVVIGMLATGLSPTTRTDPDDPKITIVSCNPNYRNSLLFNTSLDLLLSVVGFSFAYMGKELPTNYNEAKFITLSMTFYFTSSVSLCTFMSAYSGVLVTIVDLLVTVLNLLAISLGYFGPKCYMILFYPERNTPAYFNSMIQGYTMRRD
T1 sequence (Q7RTX0 21-852): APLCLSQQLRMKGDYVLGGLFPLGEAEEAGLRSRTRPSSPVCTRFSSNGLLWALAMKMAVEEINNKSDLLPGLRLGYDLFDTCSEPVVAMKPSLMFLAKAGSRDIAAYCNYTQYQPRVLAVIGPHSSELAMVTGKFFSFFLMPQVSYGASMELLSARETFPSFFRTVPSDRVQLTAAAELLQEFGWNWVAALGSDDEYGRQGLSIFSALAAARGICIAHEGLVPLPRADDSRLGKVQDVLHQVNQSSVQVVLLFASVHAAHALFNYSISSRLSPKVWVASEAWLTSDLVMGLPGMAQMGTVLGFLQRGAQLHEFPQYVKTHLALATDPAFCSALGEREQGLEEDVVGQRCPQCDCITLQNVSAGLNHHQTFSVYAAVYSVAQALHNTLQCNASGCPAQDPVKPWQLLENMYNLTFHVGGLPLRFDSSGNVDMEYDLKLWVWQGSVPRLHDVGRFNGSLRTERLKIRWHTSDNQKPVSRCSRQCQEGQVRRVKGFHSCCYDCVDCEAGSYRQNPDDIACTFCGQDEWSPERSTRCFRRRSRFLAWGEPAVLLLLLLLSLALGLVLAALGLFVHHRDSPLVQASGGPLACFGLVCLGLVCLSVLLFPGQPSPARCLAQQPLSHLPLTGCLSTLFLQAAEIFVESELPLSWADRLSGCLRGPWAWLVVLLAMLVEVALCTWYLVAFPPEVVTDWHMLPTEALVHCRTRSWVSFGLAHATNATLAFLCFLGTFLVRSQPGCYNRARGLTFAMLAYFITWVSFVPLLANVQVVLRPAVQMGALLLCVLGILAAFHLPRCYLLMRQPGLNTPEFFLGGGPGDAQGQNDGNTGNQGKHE
Protocol: The Gα15 coding sequence was inserted in the HindIII-NotI sites and recombinant virus was generated using the Bac-to-Bac system (Life Technologies). Virus was further amplified by propagation in Sf9 cells grown in suspension using Sf900-II media. Virus titers were determined by plaque assay on Sf9 cells.
Cells were gently mixed with the virus at a multiplicity of infection (MOI) of 5. Using a multidrop, 70 μl per well of the cell and virus mixture was dispensed in a 384-well clear bottom plate (Fisher). After 24 h of incubation in a humidified 37°C tissue culture incubator, trichostatin A was added to a final concentration of 0.3 μM and the cells were incubated for another 18–24 h at 34°C. On the day of the experiment, cells were loaded with 4 μM of the calcium indicator Fluo-4 AM (Invitrogen) in D-PBS for 1 h at room temperature. After washing the cells with D-PBS using a cell washer (BioTek) and a 30-minute rest time, the cell plate and the compound plate were transferred into the FLIPR-Tetra (Molecular Devices). […] Loading and the FLIPR assay were run as described above. When indicated, data for agonist dose-responses were normalized to data obtained with a maximum concentration of sucralose (1 mM) and then fitted and plotted using GraphPad Prism (San Diego, CA) and non-linear regression analysis.
This value, that we termed pEC50Ratio (sucralose) or pEC50R (sucralose), was calculated with EC50 values obtained in the two assay systems. This transformation also allowed determination of an average and a standard error for the pEC50R (sucralose). The two sets of data (DMR and FLIPR data) were then analyzed with an un-paired t-test (α = 0.05). To calculate relative efficacy bias between the two assays, we captured the top asymptote value from each activity-normalized dose-response curve, as provided by the curve fit, calculated an average and a standard deviation (sd) for each agonist and then analyzed the data pairs with an un-paired t-test (α = 0.05). […] The following steps were followed: 1) Using the PRISM software, we re-analyzed each ligand’s dose-response data obtained in each assay with non-linear regression and the users-defined equation “New Operational Model with TauKa ratios” and retrieved logR values from the fits. 2) Subtracted each ligand’s logR value with that of our standard, the sucralose logR value, obtained from the same data set (each ligand dose-response assay data used in this analysis was accompanied with a sucralose dose-response ran on the same day), producing the ΔlogR value for leach ligand in each assay. 3) Calculated the mean and SEM from ΔlogR replicates (from three to nine independent dose-response analysis, in the two different assays). 4) Calculated ΔΔlogR values by subtracting the averaged ligands’ ΔlogR FLIPR values with the averaged ligands’ ΔlogR DMR values.

[7] = Homo sapiens, U2OS, read-out: % inhibition of the sucralose DMR response
[8] = Homo sapiens, U2OS, read-out: % inhibition of the S1P DMR response
[9] = Homo sapiens, U2OS, read-out: % inhibition of the somatostatin DMR response
[10] = Homo sapiens, U2OS, read-out: % inhibition of the carbachol DMR response

SMILES: CN(C)CCCn1cc(C2=C(c3c[nH]c4ccccc34)C(=O)NC2=O)c2ccccc21 [GF109203x]
% inhibition of the sucralose DMR response ([1]; 2 mM sucralose, GF109203x 5 μM, GW583340 10 μM, tyrphostin 1 μM, mean ± sd or average of two experiments): −7 ± 10% | % inhibition of the S1P DMR response ([2]; 1 μM S1P): 15% | % inhibition of the somatostatin DMR response ([3]; 10 μM somatostatin, PTx overnight, GF109203x 5 μM, GW583340 10 μM, tyrphostin 1 μM, mean ± sd or average of two experiments): 8% | % inhibition of the carbachol DMR response ([4]; 100 μM carbachol, PTx overnight, GF109203x 5 μM, GW583340 10 μM, tyrphostin 1 μM, mean ± sd or average of two experiments): 67 ± 4% | % inhibition of the EGF DMR response [5]: 22 ± 11%

SMILES: COc1ccc(OC(C)C(=O)O)cc1 (centres unmarked) [lactisole, 2-(4-methoxyphenoxy)-propionic acid]
DMR response on parental U2OS cells, in words (parental U2OS cells): positive DMR response

SMILES: COC[C@H]1OC(=O)c2coc3c2[C@@]1(C)C1=C(C3=O)[C@@H]2CCC(=O)[C@@]2(C)C[C@H]1OC(C)=O [wortmannin]
effect on the sucralose DMR response, in words ([1]; 2 mM sucralose): no statistically significant effects | % enhancement of the S1P DMR response ([2]; 1 μM S1P, wortmannin 200 nM, mean ± sd, n = 4): 61 ± 22% | effect on the somatostatin DMR response, in words ([3]; 10 μM somatostatin): no statistically significant effects | effect on the carbachol DMR response, in words ([4]; 100 μM carbachol): no statistically significant effects | inhibition at 0.2 µM ([5]; Homo sapiens, U2OS, read-out: % inhibition of the EGF DMR response): 42 ± 10%

SMILES: COc1cc2ncnc(Nc3cccc(Cl)c3)c2cc1OC [tyrphostin, Tyrphostin AG 1478]
inhibition at 1 µM [1, 7]: 2.6% | inhibition at 1 µM [2, 8]: -7% | inhibition at 1 µM [3, 9]: 3.1% | inhibition at 1 µM [4, 10]: -10.8% | effect on the EGF DMR response, in words [5]: abolished

SMILES: C/C1=C/C(=O)O[C@@H]2C[C@@H](CC[C@H](C)/C=C\C=C\CC1)O[C@@](O)([C@@H]1CSC(=O)N1)C2 [Latrunculin A]
effect on the sucralose DMR response, in words ([1]; 2 mM sucralose): disrupted | effect on the S1P DMR response, in words ([2]; 1 μM S1P, latrunculin A 1 μM): disrupted | effect on the somatostatin DMR response, in words ([3]; 10 μM somatostatin): disrupted | effect on the carbachol DMR response, in words ([4]; 100 μM carbachol): disrupted | effect on the EGF DMR response, in words [5]: disrupted

response in the FLIPR assay, in words [6]: readily detected
SMILES: OC[C@H]1O[C@@](CO)(O[C@H]2O[C@H](CO)[C@@H](O)[C@H](O)[C@H]2O)[C@@H](O)[C@@H]1O [sucrose]
DMR response on parental U2OS cells, in words (parental U2OS cells): produced significant DMR responses

SMILES: CCn1c(-c2nonc2N)nc2cnc(Oc3cccc(NC(=O)c4ccc(OCCN5CCOCC5)cc4)c3)cc21 [GSK269962]
% enhancement of the sucralose DMR response ([1]; 2 mM sucralose, GSK269962 2 μM, mean ± sd, n = 3): 28 ± 11% | % inhibition of the S1P DMR response ([2]; 1 μM S1P): 77 ± 14% | effect on the somatostatin DMR response, in words ([3]; 10 μM somatostatin): not affected | effect on the carbachol DMR response, in words ([4]; 100 μM carbachol): not affected | effect on the EGF DMR response, in words [5]: not affected

SMILES: N#CC(=C(/N)Sc1ccccc1N)/C(C#N)=C(/N)Sc1ccccc1N [U0126]
effect on the sucralose DMR response, in words ([1]; 2 mM sucralose): no statistically significant effects | % inhibition of the S1P DMR response ([2]; 1 μM S1P): 19 ± 26% | effect on the somatostatin DMR response, in words ([3]; 10 μM somatostatin): no statistically significant effects | effect on the carbachol DMR response, in words ([4]; 100 μM carbachol): no statistically significant effects | % inhibition of the EGF DMR response [5]: 54 ± 15%

SMILES: CS(=O)(=O)CCNCc1nc(-c2ccc3ncnc(Nc4ccc(OCc5cccc(F)c5)c(Cl)c4)c3c2)cs1 [GW583340]
inhibition at 10 µM [1, 7]: 3.1% | inhibition at 10 µM [2, 8]: -16% | inhibition at 10 µM [3, 9]: -0.3% | inhibition at 10 µM [4, 10]: 7.6% | effect on the EGF DMR response, in words [5]: abolished
